# Results published in patent US20160263081A1, “ANTIPARASITIC AGENT” (NAI INC., priority 2013, published 2016).
# Several values for one entry are separate records, joined by “and”; a condition that tells them apart may be missing. Equal entries are not always repeated. Where two headings read alike, the source gives them in different places.
# What was measured:
# [1] = tested on: L. donovani promastigote; settings: cited from earlier work
# [2] = tested on: L. major promastigote; settings: cited from earlier work
# [3] = tested on: T. cruzi amastigote; settings: cited from earlier work
# [4] = biological target: Ascaris suum complex II (Ascaris suum, UniProt O44074+P92506+P92507); settings: A. suum complex II; cited from earlier work
# [5] = tested on: T. cruzi complex II; format: biochemical, Trypanosoma cruzi
# [6] = biological target: T1, A. suum respiratory chain complex II (Ascaris suum, UniProt O44074+P92506+P92507); assay: biochemical
# T1 construct: measured using A. suum imago complex II; from tissue; host or cells: adult (imago) Ascaris suum
# T1 sequence (Q33862 19-645 partner): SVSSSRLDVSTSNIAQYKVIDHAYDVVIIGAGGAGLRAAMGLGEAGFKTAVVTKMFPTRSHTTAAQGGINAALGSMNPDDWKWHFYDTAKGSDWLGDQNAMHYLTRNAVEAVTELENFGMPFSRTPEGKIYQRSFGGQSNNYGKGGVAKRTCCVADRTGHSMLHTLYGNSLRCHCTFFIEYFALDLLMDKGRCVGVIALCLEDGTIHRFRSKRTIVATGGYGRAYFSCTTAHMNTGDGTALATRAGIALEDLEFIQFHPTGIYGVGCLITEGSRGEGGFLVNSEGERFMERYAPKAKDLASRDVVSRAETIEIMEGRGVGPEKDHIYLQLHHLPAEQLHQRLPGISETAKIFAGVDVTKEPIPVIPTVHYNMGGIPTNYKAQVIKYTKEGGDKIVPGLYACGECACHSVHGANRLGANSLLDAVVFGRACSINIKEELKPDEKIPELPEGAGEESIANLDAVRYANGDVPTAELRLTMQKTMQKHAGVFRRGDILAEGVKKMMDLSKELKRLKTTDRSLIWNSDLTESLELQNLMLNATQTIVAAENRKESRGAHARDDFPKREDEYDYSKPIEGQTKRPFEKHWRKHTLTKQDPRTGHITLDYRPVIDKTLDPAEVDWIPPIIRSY
# T1 sequence (O44074 22-282): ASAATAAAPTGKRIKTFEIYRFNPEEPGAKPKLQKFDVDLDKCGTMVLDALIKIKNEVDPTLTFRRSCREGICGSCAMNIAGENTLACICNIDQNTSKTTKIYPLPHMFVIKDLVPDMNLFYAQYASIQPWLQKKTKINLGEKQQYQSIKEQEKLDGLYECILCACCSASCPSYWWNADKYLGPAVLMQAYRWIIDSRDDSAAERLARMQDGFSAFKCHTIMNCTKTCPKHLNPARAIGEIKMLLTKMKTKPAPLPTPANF
# T1 sequence (P92506 32-188): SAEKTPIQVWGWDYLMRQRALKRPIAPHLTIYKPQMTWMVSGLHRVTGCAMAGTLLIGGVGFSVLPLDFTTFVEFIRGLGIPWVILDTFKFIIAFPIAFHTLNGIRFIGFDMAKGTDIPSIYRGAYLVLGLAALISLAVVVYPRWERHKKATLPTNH
# T1 sequence (P92507 26-156): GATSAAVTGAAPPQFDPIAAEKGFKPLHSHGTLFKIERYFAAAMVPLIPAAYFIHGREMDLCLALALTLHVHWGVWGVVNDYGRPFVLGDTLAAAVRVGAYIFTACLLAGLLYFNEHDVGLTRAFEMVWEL
# [7] = tested on: T. cruzi amastigote; assay: Count of T. cruzi amastigotes infecting mouse cells; format: cell-based, Trypanosoma cruzi
# Source text: (§1) Siccanin inhibits trypanosomatid and plasmodia complex II with IC50 values on the nM order. Based on this fact, the present inventors further measured the impact of siccanin on the proliferation of parasites (Table 3). The species of the organisms used in the present study were: nonpathogenic leishmanial protozoan L. tarentolae promastigote (insect form), cutaneous leishmaniasis pathogen L. major promastigote (insect form), visceral leishmaniasis pathogen L. donovani promastigote (insect form), related species of African sleeping sickness pathogen T. b. brucei bloodstream form, Chagas disease pathogen T. cruzi amastigote (cell form), and plasmodia P. falciparum erythrocytic stage (Table 3). T. b. brucei bloodstream form and T. cruzi amastigote correspond to the stages found in mammalian hosts and can be used as target forms in drug treatments for African trypanosomiasis and Chagas disease.
# (§2) In the presence of 0.05 to 50 μM siccanin, the proliferation of L. tarentolae promastigote, L. donovani promastigote, L. major promastigote, and T. brucei bloodstream form was measured by Alamar Blue method. […] The growth inhibitory effect of siccanin on T. cruzi was evaluated by counting the T. cruzi amastigote population that infected mouse cells. As compared with DMSO control, the number of the protozoa decreased by 50% in the presence of 10 μM siccanin. […]
# [8] = biological target: A. simplex complex II (Anisakis simplex, UniProt A0A0M3JRB2+A0A0M3KB13+A0A3P6RGD8); assay: biochemical
# Sequence of A. simplex complex II (A0A0M3JRB2 24-279): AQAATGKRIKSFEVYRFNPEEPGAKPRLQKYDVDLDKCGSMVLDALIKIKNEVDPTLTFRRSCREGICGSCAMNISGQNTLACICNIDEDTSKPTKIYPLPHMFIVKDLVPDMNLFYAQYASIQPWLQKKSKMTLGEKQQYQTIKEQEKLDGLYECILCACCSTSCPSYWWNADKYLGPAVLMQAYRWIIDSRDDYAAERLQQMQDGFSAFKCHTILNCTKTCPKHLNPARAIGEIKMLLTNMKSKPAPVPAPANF
# Sequence of A. simplex complex II (A0A3P6RGD8 1-99): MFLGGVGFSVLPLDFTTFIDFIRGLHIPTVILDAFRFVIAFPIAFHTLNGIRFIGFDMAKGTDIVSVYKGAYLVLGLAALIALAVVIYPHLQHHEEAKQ
# Sequence of A. simplex complex II (A0A0M3KB13 31-157): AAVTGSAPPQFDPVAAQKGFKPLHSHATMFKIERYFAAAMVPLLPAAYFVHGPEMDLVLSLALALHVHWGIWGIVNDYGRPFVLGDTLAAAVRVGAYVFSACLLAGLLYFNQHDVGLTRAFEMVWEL
# Sequence of A. simplex complex II (A0A0M3KCD2 1-354 partner): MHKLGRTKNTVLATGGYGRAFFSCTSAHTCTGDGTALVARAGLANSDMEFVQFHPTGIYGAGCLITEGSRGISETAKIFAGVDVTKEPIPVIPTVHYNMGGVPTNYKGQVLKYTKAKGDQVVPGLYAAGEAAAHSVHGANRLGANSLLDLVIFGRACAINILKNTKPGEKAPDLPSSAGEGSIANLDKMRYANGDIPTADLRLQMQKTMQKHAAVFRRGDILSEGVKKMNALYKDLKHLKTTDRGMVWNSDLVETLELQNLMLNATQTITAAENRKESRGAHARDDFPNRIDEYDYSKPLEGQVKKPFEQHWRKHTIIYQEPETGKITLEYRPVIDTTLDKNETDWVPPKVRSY
# [9] = biological target: T2, pig complex II (Sus scrofa, UniProt A5GZW8+D0VWV4+Q007T0); format: biochemical
# T2 sequence (Q0QF01 43-664 partner): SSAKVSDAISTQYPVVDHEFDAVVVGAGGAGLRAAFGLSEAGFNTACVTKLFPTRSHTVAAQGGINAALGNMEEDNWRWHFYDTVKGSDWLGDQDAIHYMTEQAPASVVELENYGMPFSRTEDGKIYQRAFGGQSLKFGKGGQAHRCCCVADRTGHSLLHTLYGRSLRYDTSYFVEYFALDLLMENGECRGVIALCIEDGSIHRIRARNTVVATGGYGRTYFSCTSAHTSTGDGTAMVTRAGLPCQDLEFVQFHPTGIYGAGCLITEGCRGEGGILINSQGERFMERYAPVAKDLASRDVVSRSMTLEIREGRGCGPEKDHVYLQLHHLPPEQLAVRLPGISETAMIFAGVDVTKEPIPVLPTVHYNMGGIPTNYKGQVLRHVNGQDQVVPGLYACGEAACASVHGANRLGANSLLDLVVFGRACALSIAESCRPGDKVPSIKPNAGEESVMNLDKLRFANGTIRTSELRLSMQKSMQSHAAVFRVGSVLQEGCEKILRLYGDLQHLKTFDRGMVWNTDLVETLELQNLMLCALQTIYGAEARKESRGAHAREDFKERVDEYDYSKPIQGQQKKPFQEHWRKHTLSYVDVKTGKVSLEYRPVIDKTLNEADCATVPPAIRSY
# T2 sequence (Q007T0 29-280): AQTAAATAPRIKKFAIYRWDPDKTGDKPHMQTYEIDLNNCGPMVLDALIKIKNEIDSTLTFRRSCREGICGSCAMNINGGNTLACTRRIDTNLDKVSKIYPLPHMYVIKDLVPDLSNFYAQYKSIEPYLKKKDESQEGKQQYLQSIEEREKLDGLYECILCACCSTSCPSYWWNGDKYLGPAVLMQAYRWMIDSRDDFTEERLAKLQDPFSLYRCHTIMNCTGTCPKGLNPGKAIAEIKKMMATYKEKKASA
# T2 sequence (D0VWV4 30-169): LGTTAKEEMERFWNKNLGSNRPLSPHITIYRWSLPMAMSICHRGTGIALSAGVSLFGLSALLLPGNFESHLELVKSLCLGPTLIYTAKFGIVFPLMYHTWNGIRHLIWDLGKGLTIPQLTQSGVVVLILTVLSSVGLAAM
# T2 sequence (A5GZW8 57-159 limits assumed): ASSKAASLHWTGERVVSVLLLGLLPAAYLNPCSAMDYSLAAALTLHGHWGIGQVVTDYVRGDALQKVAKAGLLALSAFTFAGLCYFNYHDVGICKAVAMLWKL
# [10] = biological target: rat complex II (Rattus norvegicus, UniProt P21913+Q641Z9+Q6PCT8); settings: cited from earlier work
# Sequence of rat complex II (Q920L2 35-656 partner): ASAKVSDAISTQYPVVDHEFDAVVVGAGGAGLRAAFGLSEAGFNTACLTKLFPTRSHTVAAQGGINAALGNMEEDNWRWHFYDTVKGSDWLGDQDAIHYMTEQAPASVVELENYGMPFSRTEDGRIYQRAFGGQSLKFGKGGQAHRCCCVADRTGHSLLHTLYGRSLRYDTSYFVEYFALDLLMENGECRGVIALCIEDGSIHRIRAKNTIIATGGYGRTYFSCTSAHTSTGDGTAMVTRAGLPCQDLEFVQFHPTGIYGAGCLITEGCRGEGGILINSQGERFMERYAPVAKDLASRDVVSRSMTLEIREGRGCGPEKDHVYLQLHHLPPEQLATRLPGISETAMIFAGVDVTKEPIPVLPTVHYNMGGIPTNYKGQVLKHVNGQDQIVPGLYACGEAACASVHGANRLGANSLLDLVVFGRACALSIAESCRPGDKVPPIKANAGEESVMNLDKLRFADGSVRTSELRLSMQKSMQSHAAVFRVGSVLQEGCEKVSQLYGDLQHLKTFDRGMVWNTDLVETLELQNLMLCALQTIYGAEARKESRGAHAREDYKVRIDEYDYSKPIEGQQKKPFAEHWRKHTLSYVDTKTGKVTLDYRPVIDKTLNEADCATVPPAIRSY
# Sequence of rat complex II (P21913 31-282): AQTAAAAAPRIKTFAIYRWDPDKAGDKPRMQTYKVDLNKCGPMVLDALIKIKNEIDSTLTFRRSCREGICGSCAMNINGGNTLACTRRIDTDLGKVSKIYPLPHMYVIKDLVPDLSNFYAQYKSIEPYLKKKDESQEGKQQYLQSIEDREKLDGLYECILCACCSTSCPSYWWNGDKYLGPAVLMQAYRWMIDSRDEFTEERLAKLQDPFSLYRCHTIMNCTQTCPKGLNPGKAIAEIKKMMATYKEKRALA
# Sequence of rat complex II (Q641Z9 30-169 limits assumed): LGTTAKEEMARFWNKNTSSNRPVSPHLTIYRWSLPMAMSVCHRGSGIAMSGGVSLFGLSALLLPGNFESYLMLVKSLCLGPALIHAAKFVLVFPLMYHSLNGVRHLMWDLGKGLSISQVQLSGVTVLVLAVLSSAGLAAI
# Sequence of rat complex II (Q6PCT8 57-159): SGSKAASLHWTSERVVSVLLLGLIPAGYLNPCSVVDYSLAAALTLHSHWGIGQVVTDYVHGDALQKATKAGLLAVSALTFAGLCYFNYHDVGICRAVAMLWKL
# [11] = tested on: D. immitis complex II; format: biochemical, Dirofilaria immitis
# [12] = biological target: Escherichia coli complex II (Escherichia coli, UniProt P07014+P0AC44+P69054); settings: cited from earlier work
# [13] = tested on: L. tarentolae complex II; format: biochemical, Leishmania tarentolae
# [14] = tested on: H. contortus complex II; format: biochemical, Haemonchus contortus
# [15] = tested on: T. b. brucei bloodstream form; assay: Proliferation by Alamar Blue method, T. b. brucei bloodstream form; format: cell-based; settings: Trypanosoma brucei, read-out: Celluler IC50
# Source text: as §1, §2
# [16] = tested on: Pseudomonas aeruginosa complex II; settings: cited from earlier work
# [17] = biological target: T2, pig complex II; settings: Non-Patent Document 21; cited from earlier work
# [18] = tested on: T. mentagrophytes respiratory chain complex II; settings: cited from earlier work
# [19] = biological target: L. tarentolae respiratory chain complex II; assay: Lineweaver-Burk inhibition pattern, L. tarentolae complex II; format: biochemical, Leishmania tarentolae; settings: for Ki: L. tarentolae SQR activity, for quinone (ubiquinone 1)
# Description: FIG. 2 is a graph which represents the inhibition pattern of siccanin against L. tarentolae respiratory chain complex II.
# (§3) In order to estimate the inhibitory mechanism of siccanin against complex II, the inhibitory pattern was determined by Lineweaver-Burk plot using succinate and quinone as the substrates. As samples for measurement, nematode complex II from A. suum and complex II from L. tarentolae, which is an easy-to-handle trypanosomatid, were used. […] The SDH activity is catalyzed by only subunits Fp and Ip of complex II and the quinone-binding domain is not essential for the reaction.
# [20] = tested on: Trychophyton spp., Epidermophyton floccosum, and Microsporium gypseum; settings: cited from earlier work
# [21] = tested on: L. tarentolae promastigote; assay: Proliferation by Alamar Blue method, L. tarentolae promastigote; format: cell-based; settings: Leishmania tarentolae, read-out: Celluler IC50
# Source text: as §1, §2
# [22] = biological target: T1, A. suum respiratory chain complex II; assay: Lineweaver-Burk inhibition pattern, A. suum complex II; format: biochemical; settings: for Ki: A. suum SQR activity, for quinone (decylubiquinone)
# Description: FIG. 1 is a graph which represents the inhibition pattern of siccanin against A. suum respiratory chain complex II.
# as §3
# [23] = tested on: L. major promastigote; assay: Proliferation by Alamar Blue method, L. major promastigote; format: cell-based; settings: Leishmania major, read-out: Celluler IC50
# Source text: as §1, §2
# [24] = biological target: T3, A. suum complex II SDH activity (Ascaris suum, UniProt O44074+P92506+P92507); assay: Succinate dehydrogenase (SDH) reaction with PMS and MTT, A. suum complex II; format: biochemical; settings: 50 μM siccanin
# T3 construct: measured using A. suum imago complex II; from tissue; host or cells: adult (imago) Ascaris suum
# Description: as §3
# [25] = tested on: L. tarentolae complex II SDH activity; assay: Succinate dehydrogenase (SDH) reaction with PMS and MTT, L. tarentolae complex II; format: biochemical, Leishmania tarentolae; settings: 50 μM siccanin
# Description: as §3
# [26] = tested on: T. b. brucei complex II; format: biochemical, Trypanosoma brucei brucei
# [27] = tested on: T. mentagrophytes mitochondria; settings: cited from earlier work
# [28] = tested on: D. immitis microfilariae; format: cell-based, Dirofilaria immitis
# [29] = tested on: P. falciparum complex II; format: biochemical, Plasmodium falciparum
# [30] = tested on: T. mentagrophytes; settings: glycol salicylate ointment containing 1% siccanin applied 3-8 days after infection, albino guinea pigs, N=20; cited from earlier work
# [31] = tested on: P. falciparum erythrocytic stage; assay: P. falciparum proliferation by LDH assay; format: cell-based, Plasmodium falciparum; settings: read-out: Celluler IC50
# Source text: as §1, §2
# [32] = tested on: L. donovani promastigote; assay: Proliferation by Alamar Blue method, L. donovani promastigote; format: cell-based; settings: Leishmania donovani
# Source text: as §1, §2
# [33] = complex II alone, read-out: Ki1
# [34] = complex of complex II and ubiquinone, read-out: Ki2
# [35] = A. suum complex II, Lineweaver-Burk plot
compound,measurement,setting,value
C[C@@H]1[C@H](O)[C@@H](C)/C=C/C=C/C=C/C=C/C=C/C=C/C=C/[C@H](O[C@@H]2O[C@H](C)[C@@H](O)[C@H](N)[C@@H]2O)C[C@@H]2O[C@](O)(C[C@@H](O)C[C@@H](O)[C@H](O)CC[C@@H](O)C[C@@H](O)CC(=O)O[C@H]1C)C[C@H](O)[C@H]2C(=O)O [Amphotericin B],IC50,[1],~12 nM
same,IC50,[2],~43 nM
O=C(Cn1ccnc1[N+](=O)[O-])NCc1ccccc1 [benznidazole],IC50,[3],~22000 nM
CC(C)Oc1cccc(NC(=O)c2ccccc2C(F)(F)F)c1 [flutolanil],selectivity over pig complex II,[4],800 fold
CCCCCCCCCCCCCCCCOP(=O)([O-])OCC[N+](C)(C)C [miltefosine],IC50,[1],~450 nM
same,IC50,[2],~13100 nM
CC1CS(=O)(=O)CCN1/N=C/c1ccc([N+](=O)[O-])o1 (stereo not shown) [nifurtimox],IC50,[3],~3500 nM
Cc1cc(O)c2c(c1)O[C@@]1(C)CC[C@H]3C(C)(C)CCC[C@]34CO[C@@H]2[C@H]41 [siccanin],Selectivity,[5],718 fold
same,IC50,[5]; read-out: SQR IC50,1200 nM
same,IC50,[6],5.7 nM
same,Selectivity,[6],"180,000 fold"
same,selectivity relative to the selectivity of flutolanil,[6],about 20 fold
same,decrease in the number of the protozoa compared with DMSO control,[7]; 10 μM siccanin,50%
same,IC50,"[7]; Trypanosoma cruzi, T. cruzi amastigote in mouse cells, read-out: Celluler IC50",10000 nM
same,IC50,[8],11.2 nM
same,Selectivity,[8],76875 fold
same,Selectivity,[9],1
same,IC50,[10],9300 nM
same,Selectivity,[11],62391 fold
same,IC50,[11]; read-out: SQR IC50,13.8 nM
same,IC50,[12],268000 nM
same,Selectivity,[13],4532 fold
same,IC50,[13]; read-out: SQR IC50,190 nM
same,Selectivity,[14],47308 fold
same,IC50,[14]; read-out: SQR IC50,18.2 nM
same,IC50,[15],8300 nM
same,IC50,[16]; Pseudomonas aeruginosa complex II,870 nM
same,inhibition mode against quinone,[16]; membrane fraction of Pseudomonas aeruginosa,mixed inhibition
same,IC50,[17],861000 nM
same,IC50,[18],87 nM
same,Ki,[19]; [33],39 nM
same,Ki,[19]; [34],102 nM
same,inhibitory pattern for quinone,"[19]; L. tarentolae complex II, Lineweaver-Burk plot",mixed inhibition
same,MIC,[20],0.6 to 6.3 µg/mL
same,IC50,[21],4400 nM
same,Ki,[22]; [33],3 nM and 5.2 nM
same,Ki,[22]; [34],8.7 nM and 9.9 nM
same,inhibitory pattern for quinone,[22]; [35],mixed inhibition
same,inhibitory pattern for succinate,[22]; [35],non-competitive inhibition
same,IC50,[23],13000 nM
same,inhibition of SDH activity,[24],no inhibitory effects
same,inhibition of SDH activity,[25],no inhibitory effects
same,Selectivity,[26],3189 fold
same,IC50,[26]; read-out: SQR IC50,370 nM
same,inhibition of NADH- or ascorbate-dependant oxygen consumption,[27],does not inhibit
same,Motility (%),"[28]; 5 μM, 0 hr",100%
same,Motility (%),"[28]; 5 μM, 24 hr",75%
same,Motility (%),"[28]; 5 μM, 48 hr",50%
same,Motility (%),"[28]; 50 μM, 0 hr",25%
same,Motility (%),"[28]; 50 μM, 24 hr",0%
same,Motility (%),"[28]; 50 μM, 48 hr",0%
same,IC50,[29],98 nM
same,Selectivity,[29],8675
same,subjects whose skin was completely cured,[30],85-100%
same,IC50,[31]; Plasmodium falciparum,15500 nM
same,IC50,[31],16000 nM
same,IC50,[32]; read-out: Celluler IC50,700 nM
same,IC50,[32]; read-out: IC50,700 nM
ivermectin [reference compound],Motility (%),"[28]; 5 μM, 0 hr",100%
same,Motility (%),"[28]; 5 μM, 24 hr",75%
same,Motility (%),"[28]; 5 μM, 48 hr",50%
same,Motility (%),"[28]; 50 μM, 0 hr",100%
same,Motility (%),"[28]; 50 μM, 24 hr",50%
same,Motility (%),"[28]; 50 μM, 48 hr",50%
